# Laboratory results as given in US20100173331A1, “NOVEL NOTCH-ORIGIN POLYPEPTIDES AND BIOMARKERS AND REAGENTS USING THE SAME” (priority 2002, published 2010).
# Molecular target: T1, presenilin (Homo sapiens, UniProt P49768)
# T1 construct: endogenous in cells; probably K293
# Experiment: Pulse-chase of cells stably expressing F-NEXT with or without γ-secretase inhibitor; immunoprecipitation/SDS-PAGE of media (Nβ release) and lysates (NICD)
# Assay type: cell-based
# Settings: 1 μM inhibitor, 1 hour pulse, 2-hour chase
# Protocol: Human embryonic kidney 293 (K293), N2a and COS cells were cultured in DMEM supplemented with 10% fetal bovine serum, 1% penicillin/streptomycin, and 200 μg/ml zeocin (to select for PS1 expression), and/or 100 μg/ml hygromycin (to select for NΔE and F-NEXT expression). The K293 can stably express wild-type PS1, PS1 L286V, or PS1 D385N (Okochi et al, 2000, Kulic et al, 2000, Wolfe et al., 1999). The transfection with NΔE or F-NEXT was performed by means of a product named Lipofectamine 2000 (Invitrogen).
# To determine NΔE N-terminal fragment (NTF: Nβ) release from NΔE expressing cells, K293 cells stably transfected with NΔE or NICD were grown to confluence in a 10 cm dish. The cells were then metabolically pulse-labeled for 2 hours with 300 μCi [^3H] amino acids (tritiated amino acid mixture, Amersham) in Earle's Balanced Salt Solution supplemented with MEM Vitamine Solution (Gibco) and several cold amino acids, followed by a 6-hour chase by 10% FCS/DMEM. To examine Nβ release, cells expressing F-NEXT were, at first, starved of methinine for 40 min with methionine-free media and then pulse-labeled for 1 hour with 400 μCi [^35S] amino acid mixture (Redivue Promix, Amersham) in methionine-free DMEM, followed by chasing for various time periods with the chase media containing 10% FCS/DMEM supplemented with excess cold methionine. […]
smiles,measurement,setting,value
"CC(C)C[C@H](NC(=O)[C@H](Cc1ccccc1)C[C@@H](O)[C@H](Cc1ccccc1)NC(=O)OC(C)(C)C)C(=O)N[C@@H](Cc1ccccc1)C(N)=O [L685,458, [(2R,4R,5S)-2-Benzyl-5-(Boc-amino)-4-hydroxy-6-phenyl-hexanoyl]-Leu-Phe-NH2]","NICD band in cell lysates (S3 cleavage), immunoprecipitated with 9E10",FIG. 5B lower panel,hardly visible
same,"Nβ release to culture media (S4 cleavage), immunoprecipitated with M2-agarose",FIG. 5B upper panel,decreased drastically
